Values of other authors, collected in article PMC9610729, “Anticholinesterase Activity of Selected Medicinal Plants from Navarra Region of Spain and a Detailed Phytochemical Investigation of Origanum vulgare L. ssp. vulgare” (Molecules, 2022).
Read-outs that look alike come from different tables or passages of the source.

Experiments:
AChE [1] = system: AChE; parameters: method as in PMID 35745206
AChE [2] = system: AChE

COc1cc(C(=O)O)cc(OC)c1O [Compound 7, Syringic acid]
AChE inhibition (AChE [1]): high inhibition percentage

O=c1c(O)c(-c2ccc(O)cc2)oc2cc(O)cc(O)c12 [kaempferol]
AChE inhibition (AChE [2]): efficient AChE inhibitors

O=c1cc(-c2ccc(O)c(O)c2)oc2cc(O)cc(O)c12 [luteolin]
AChE inhibition (AChE [2]): to a lesser extent

COC(=O)c1cc(OC)c(O)c(OC)c1 [methyl syringinate]
AChE inhibition (AChE [1]): best properties

O=c1c(O)c(-c2ccc(O)c(O)c2)oc2cc(O)cc(O)c12 [quercetin]
AChE inhibition (AChE [2]): efficient AChE inhibitors
